Reference: EPA's CvTdb concentration-time database

Key:
[1] = tested on: Rat; assay: concentration in plasma after dosing; conditions: dosed: Potassium Perfluorobutane Sulfonate, 4 mg/kg, iv, Male, F344
[2] = tested on: Rat; assay: concentration in plasma after dosing; conditions: 1.5 h; dosed: Potassium Perfluorobutane Sulfonate; 4 mg/kg; iv; Male; F344
[3] = tested on: Rat; assay: concentration in liver after dosing; conditions: 3 h; dosed: Potassium Perfluorobutane Sulfonate; 20 mg/kg; oral; Female; Harlan Sprague Dawley
[4] = tested on: Rat; assay: concentration in liver after dosing; conditions: 12 h; dosed: Potassium Perfluorobutane Sulfonate; 20 mg/kg; oral; Male; Harlan Sprague Dawley
[5] = tested on: Rat; assay: concentration in plasma after dosing; conditions: dosed: Potassium Perfluorobutane Sulfonate, 4 mg/kg, iv, Male, F344; remark: listed apart in the source
[6] = tested on: Rat; assay: concentration in plasma after dosing; conditions: 1.5 h; dosed: Potassium Perfluorobutane Sulfonate; 4 mg/kg; iv; Male; F344; remark: listed apart in the source
[7] = tested on: rat; assay: concentration in kidney after dosing (ugEq/g tissue); conditions: dosed: benzo[a]pyrene, iv, male, Wistar
[8] = tested on: Mouse; assay: concentration in plasma after dosing; conditions: 10 min; dosed: 2-Hydroxy-4-methoxybenzophenone; 500 mg/kg; oral; Male; B6C3F1
[9] = tested on: Mouse; assay: concentration in plasma after dosing; conditions: 3 h; dosed: 2-Hydroxy-4-methoxybenzophenone; 50 mg/kg; iv; Female; B6C3F1
[10] = tested on: Mouse; assay: concentration in plasma after dosing; conditions: 10 min; dosed: 2-Hydroxy-4-methoxybenzophenone; 500 mg/kg; oral; Female; B6C3F1
[11] = tested on: Mouse; assay: concentration in plasma after dosing; conditions: 2 h; dosed: 2-Hydroxy-4-methoxybenzophenone; 500 mg/kg; oral; Female; B6C3F1
[12] = tested on: Rat; assay: concentration in plasma after dosing; conditions: dosed: 2-Hydroxy-4-methoxybenzophenone, 250 mg/kg, oral, Female, F344
[13] = tested on: Mouse; assay: concentration in plasma after dosing; conditions: dosed: 2-Hydroxy-4-methoxybenzophenone, 100 mg/kg, oral, Male, B6C3F1
[14] = tested on: Mouse; assay: concentration in plasma after dosing; conditions: 2 h; dosed: 2-Hydroxy-4-methoxybenzophenone; 250 mg/kg; oral; Female; B6C3F1
[15] = tested on: Rat; assay: concentration in plasma after dosing; conditions: dosed: Fluorotelomer alcohol 8+2, 12 mg/kg, oral, Male, Harlan Sprague Dawley
[16] = tested on: Rat; assay: concentration in plasma after dosing; conditions: 192 h; dosed: 678-39-7; 12 mg/kg; iv; Male; F344
[17] = tested on: Rat; assay: concentration in liver after dosing; conditions: 24 h; dosed: Perfluorooctanoic acid; 80 mg/kg; oral; Female; Harlan Sprague Dawley
[18] = tested on: Rat; assay: concentration in plasma after dosing; conditions: 3 h; dosed: Fluorotelomer alcohol 8+2; 12 mg/kg; oral; Male; Harlan Sprague Dawley
[19] = tested on: Rat; assay: concentration in liver after dosing; conditions: 12 h; dosed: Perfluorooctanoic acid; 80 mg/kg; oral; Female; Harlan Sprague Dawley
[20] = tested on: Rat; assay: concentration in plasma after dosing; conditions: 0.25 h; dosed: 678-39-7; 12 mg/kg; iv; Male; F344
[21] = tested on: Rat; assay: concentration in brain after dosing; conditions: 12 h; dosed: Perfluorooctanoic acid; 12 mg/kg; oral; Male; Harlan Sprague Dawley
[22] = tested on: Rat; assay: concentration in liver after dosing; conditions: 12 h; dosed: Fluorotelomer alcohol 8+2; 80 mg/kg; oral; Female; Harlan Sprague Dawley
[23] = tested on: Rat; assay: concentration in kidney after dosing; conditions: 6 h; dosed: Perfluorooctanoic acid; 12 mg/kg; oral; Male; Harlan Sprague Dawley
[24] = tested on: Rat; assay: concentration in plasma after dosing; conditions: dosed: Fluorotelomer alcohol 8+2, 12 mg/kg, oral, Male, Harlan Sprague Dawley; remark: listed apart in the source
[25] = tested on: Rat; assay: concentration in kidney after dosing; conditions: 12 h; dosed: Fluorotelomer alcohol 8+2; 80 mg/kg; oral; Female; Harlan Sprague Dawley
[26] = tested on: Rat; assay: concentration in plasma after dosing; conditions: 20 min; dosed: Nitrite; 20 mg/kg; iv; Male; F344
[27] = tested on: Rat; assay: concentration in plasma after dosing; conditions: 5 min; dosed: Nitrite; 20 mg/kg; iv; Male; F344
[28] = tested on: Rat; assay: concentration in plasma after dosing; conditions: dosed: Nitrite, 40 mg/kg, oral, Female, F344
[29] = tested on: Rat; assay: concentration in plasma after dosing; conditions: dosed: Nitrite, 20 mg/kg, iv, Male, F344

O=S(=O)([O-])C(F)(F)C(F)(F)C(F)(F)C(F)(F)F.[K+] [Potassium Perfluorobutane Sulfonate]
concentration in plasma [ng/mL]
Conditions	0.25 h	0.5 h	6 h	12 h
[1]	26000	–	7280	–
[5]	–	19100	–	1620

Conditions	concentration in liver [ng/g]	concentration in plasma [ng/mL]
[2]	–	2130
[3]	5050	–
[4]	9420	–
[6]	–	17300

c1ccc2c(c1)cc1ccc3cccc4ccc2c1c34 [benzo[a]pyrene]
concentration in kidney, [7]
Conditions	2 mg/kg	6 mg/kg	15 mg/kg
0.5 h	4.64	7.09	20.1
0.75 h	4.02	7.57	16.8
1 h	2.67	6.12	15.1
1.5 h	1.31	2.25	13.6
2 h	0.21	0.8	5.37
3 h	0.23	0.2	1.77
4 h	0.07	0.15	0.8
5 h	0.06	0.09	0.36
5 min	7	12.4	30.8
6 h	0.08	0.11	0.35
8 h	0.08	0.09	0.25
10 min	7.09	15.9	25.2
20 min	7.68	11.7	22.5
24 h	–	–	0.05
32 h	–	–	0.01

COc1ccc(C(=O)c2ccccc2)c(O)c1 [2-Hydroxy-4-methoxybenzophenone]
Conditions	concentration in plasma [ng/mL]
[8]	102
[9]	134
[10]	687
[11]	81.6
[14]	832

concentration in plasma [ng/mL]
Conditions	0.25 h	2 h	2.5 min	3 h	4 h	10 min
[12]	453	–	–	–	19	–
[13]	64.6	21.1	26.8	20	–	39.6

O=C(O)C(F)(F)C(F)(F)C(F)(F)C(F)(F)C(F)(F)C(F)(F)C(F)(F)F [Perfluorooctanoic acid]
concentration in plasma [ng/mL]
Conditions	[15]	[24]
0.25 h	27.2	204
6 h	635	438

Conditions	concentration in brain [ng/g]	concentration in kidney [ng/g]	concentration in liver [ng/g]	concentration in plasma [ng/mL]
[16]	–	–	–	307
[17]	–	–	10000	–
[18]	–	–	–	392
[19]	–	–	64300	–
[20]	–	–	–	176
[21]	1260	–	–	–
[22]	–	–	487	–
[23]	–	43100	–	–
[25]	–	711	–	–

O=N[O-] [Nitrite]
Conditions	concentration in plasma [ng/mL]
[26]	7600
[27]	8200

concentration in plasma [ng/mL]
Conditions	1 h	1.25 h	2 h	10 min
[28]	4300	–	1800	–
[29]	–	2000	–	15400
